This note sets out measurements from ChEMBL document CHEMBL3351357, “The enantiomers of the 1',6'-isomer of neplanocin A: synthesis and antiviral properties” (Bioorg Med Chem, 2014).

As usually defined, the CC50 is the concentration that lowers cell viability or growth by half. What is called EC50 is the concentration giving half of the maximal effect. One may read the EC90 as the point of the concentration-response curve where the effect stands at 90%. The IC50 is the midpoint of a concentration-inhibition curve.

A short description of data set [1]: Cytotoxicity against human HG23 cells. It is filed as cell-based.
The nature of data set [2]: Selectivity index, ratio of CC50 for human HFF cells to EC50 for human cytomegalovirus. It counts as toxicity, cell-based. The note with it: read-out: Selectivity Index.
Data set [3] deals with Human betaherpesvirus 5. The data set can be described thus: Antiviral activity against human cytomegalovirus infected in HFF cells assessed as inhibition of viral-induced cytopathicity. It is filed as functional, organism-based. As to conditions: Human betaherpesvirus 5, HFF. (In general: Cytopathic effects are the visible damage that an infection or toxin causes in cultured cells.)

A short description of data set [4]: Selectivity index, ratio of CC50 for african green monkey Vero cells to EC50 for Measles virus. It is filed as toxicity, cell-based. The note with it: read-out: Selectivity Index.
Data set [5] has as its system Ebolavirus. Nature of the data set: Antiviral activity against Ebolavirus Zaire infected in african green monkey Vero cells assessed as inhibition of viral-induced cytopathicity. It is filed as functional, cell-based. As to conditions: Orthoebolavirus; call rule not given here.
A short description of data set [6]: Selectivity index, ratio of CC50 for human HepG2.2.15 cells to EC50 for Hepatitis B virus. It is filed as toxicity. The note with it: read-out: Selectivity Index.
The subject of data set [7] is Vaccinia virus. The data set can be described thus: Antiviral activity against Vaccinia virus infected in HFF cells assessed as inhibition of viral-induced cytopathicity. It counts as functional, organism-based, Orthopoxvirus vaccinia.
Data set [8] is described as follows: Selectivity index, ratio of CC50 for human HG23 cells to EC50 for Norovirus. As to conditions: read-out: Selectivity Index. It is filed as toxicity, cell-based.
In data set [9] the test system is Measles morbillivirus. Nature of the data set: Antiviral activity against Measles virus infected in african green monkey Vero cells assessed as inhibition of viral-induced cytopathicity. It is filed as functional, organism-based.
Data set [10] in a line: Selectivity index, ratio of CC50 for african green monkey Vero cells to EC50 for Dengue virus. As to conditions: read-out: Selectivity Index. It counts as toxicity, cell-based.
A short description of data set [11]: Cytotoxicity against human HepG2.2.15 cells. It is filed as cell-based, HepG2 2.2.15.
A short description of data set [12]: Cytotoxicity against african green monkey Vero cells. It counts as cell-based. As to conditions: chlorocebus sabaeus.
The nature of data set [13]: Selectivity index, ratio of CC50 for human HFF cells to EC90 for human cytomegalovirus. It is filed as toxicity, cell-based. As to conditions: read-out: Selectivity Index.
Data set [14] can be described thus: Selectivity index, ratio of CC50 for human HFF cells to EC50 for Vaccinia virus. It is filed as toxicity, cell-based. The note with it: read-out: Selectivity Index.
For data set [15], the system named is Norovirus. The data set can be described thus: Antiviral activity against Norovirus infected in HG23 cells assessed as inhibition of viral-induced cytopathicity. It is filed as functional, cell-based.
The subject of data set [16] is Hepatitis B virus. Nature of the data set: Antiviral activity against Hepatitis B virus infected in HepG2.2.15 cells assessed as inhibition of viral-induced cytopathicity. It is filed as functional, organism-based, HepG2 2.2.15.
Data set [17] is described as follows: Selectivity index, ratio of CC50 for human HG23 cells to EC90 for Norovirus. As to conditions: read-out: Selectivity Index. It is filed as toxicity, cell-based.
A short description of data set [18]: Selectivity index, ratio of CC50 for african green monkey Vero cells to EC50 for Ebola virus Zaire virus. It is filed as toxicity, cell-based. As to conditions: read-out: Selectivity Index.
A short description of data set [19]: Cytotoxicity against human HFF cells. It counts as cell-based.
A short description of data set [20]: Selectivity index, ratio of CC50 for human HFF cells to EC90 for Vaccinia virus. The note with it: read-out: Selectivity Index. It is filed as toxicity, cell-based.
Data set [21] deals with Dengue virus. Nature of the data set: Antiviral activity against Dengue virus infected in african green monkey Vero cells assessed as inhibition of viral-induced cytopathicity. It counts as functional, organism-based.
Data set [22] is described as follows: Selectivity index, ratio of CC50 for human HepG2.2.15 cells to EC90 for Hepatitis B virus. As to conditions: read-out: Selectivity Index. It is filed as toxicity.
A short description of data set [23]: Inhibition of rabbit erythrocyte S-adenosylhomocysteine hydrolase. More on the design: species or system Oryctolagus cuniculus.

Take `Nc1ncnc2c1ncn2C1=C[C@H](CO)[C@@H](O)[C@H]1O`: the 50% cytotoxic concentration (CC50) was more than 100 µM in [1], more than 100 µM in data set [11], 1.3 µM in data set [12] and more than 49.3 µM in [19]. The selectivity ratio in data set [2] was 448; in data set [4], more than 3.5; in [6] it was more than 14; in data set [8], more than 128; in [10], 17; in data set [13] it was less than 4. Moreover, the selectivity ratio is more than 30 in [14]; more than 11 in data set [17]; 3.5 in data set [18]; 1 in [20]; more than 3 in [22]. Besides, the concentration giving a half-maximal response (EC50) in data set [3] is 0.11 µM; in data set [5], 0.38 µM; in data set [7] (Orthopoxvirus vaccinia, HFF, read-out: EC50) it was 10.1 µM; in [9], less than 0.38 µM; in data set [15], 0.784 µM; in [16] (Hepatitis B virus, HepG2 2.2.15, read-out: EC50) it was 7.2 µM. Besides, in data set [21], the concentration giving a half-maximal response (EC50) stood at 1.1 µM. The concentration for an effect of 90% (EC90) in data set [3] is more than 10 µM; in [7] (Orthopoxvirus vaccinia, HFF), more than 300 µM; in data set [16] (Hepatitis B virus, HepG2 2.2.15) it was 35 µM. The molecule further returned a half-inhibitory concentration (IC50) in data set [23] of 0.0009 µM.
`Nc1ncnc2c1ncn2C1=C[C@@H](CO)[C@H](O)[C@@H]1O`: the 50% cytotoxic concentration (CC50) is more than 300 µM in [1] and 11.4 µM in data set [12]. Moreover, the EC50 in [3] is 3.7 µM; in data set [5], 0.76 µM; in [7] (hff) it was “Not Active”; in data set [9] it was 0.72 µM; in data set [15], 11 µM; in [16] (hepg2 2.2.15) it was “Not Active”. Moreover, the EC50 in data set [21] came out at 1.3 µM. Moreover, the EC90 in [3] is 6.86 µM; in data set [15], 89 µM.
Molecule `Nc1ncnc2c1ncn2[C@@H]1C=C(CO)[C@@H](O)[C@H]1O` [NEOPLANOCIN A] registered an IC50 in data set [23] of 0.0009 µM.
